This is an account of results in patent publication US5250537A, “5,6,7,8,9,10-hexahydro-7 ,10-iminocyclohept[b]indole,-6,7,8,9,10-hexahydro-7,11-imino-5H-cyclooct[ b]indole and substituted derivatives” (Scios Nova Inc., priority 1992, dated 1993).

Counter-ions that a name gives are not always drawn. Like-named read-outs stand apart in the source and are kept apart here.

Series [1] addresses T1, serotonin 5-HT2 receptors (Rattus norvegicus, UniProt P14842).
T1 construct: Rat cortical synaptosomal membranes were prepared on the day of assay; from tissue; host or cells: rat frontal cortex synaptosomal membranes
In words: In Vitro Serotonin (5-HT2) Receptor Binding, [3H]ketanserin. Conditions: for Ki: rat cortical membranes, 1 nM [3H]ketanserin. The method, then:
The potency of compounds to inhibit the specific binding of [^3 H]ketanserin (84.2 Ci/mM) to serotonin 5-HT2 receptors was determined as detailed previously [J. E. Leysen, C. J. E. Niemegers, J. M. Van Neuten and P. M. Laduron, Mol. Pharmacol., 21, 301-314 (1982)]. Rat cortical synaptosomal membranes were prepared on the day of assay. Animals were sacrified by decapitation, the frontal cortex was removed and homogenized in 10 volumes (w/v) of ice-cold 0.32M sucrose using a motor driven teflon pestle fitted to a glass tube. The synaptosomal pellet was suspended in 50 mM Tris HCl (pH 7.6 at 25° C.) to a concentration of 7.5 mg original wet weight/mL. For the binding reaction, 400 μL of this tissue suspension was added to polypropylene tubes containing 50 mM Tris HCl and [^3 H]ketanserin (final concentration of 1 nM) in a final assay volume of 0.5 mL. Following a 15 minute incubation at 37° C., the binding reaction was terminated by rapid vacuum filtration over Whatman GF/B filters (presoaked in 0.1% PEI) followed by 3×4 mL washes with ice cold 50 mM Tris HCl. Nonspecific binding was assessed in the presence of 10 μM methysergide. All incubations were performed in triplicate. IC50 values were determined using log logit analysis.

The target of another series is T2, dopamine (D-2) receptors (Rattus norvegicus, UniProt P61169).
T2 construct: the corpus striatum was dissected and homogenized; from tissue; host or cells: rat corpus striatum membranes
As to the kind of experiment: In Vitro Dopamine (D-2) Receptor Binding, [3H]sulpiride. The conditions noted are these: rat corpus striatum; 3 nM [3H]sulpiride; read-out: Dopamine D-2 [3H]sulpiride Ki. The method, then: On the day of assay, rats were sacrificed by decapitation, the corpus striatum was dissected and homogenized in 20 volumes of ice-cold 50 mM Tris HCl (pH 7.5, 25° C.). The homogenate was centrifuged (4° C.) at 48,000×g for 10 minutes and the resulting pellet was resuspended in 20 volumes of fresh buffer and recentrifuged. […] A portion of the suspension (800 μL) was added in triplicate to tubes containing 3 nM [^3 H]sulpiride and the test compound. The final assay volume was 1 mL; haloperidol (10 μM) was used to determine non-specific binding. Following a 60 minute incubation at 25° C., the reactions were terminated by rapid filtration over Whatman GF/B filters which had been pretreated in a solution of 0.3% (w/v) of aqueous polyethylenimine. Filters were washed three times using 5 mL of ice-cold buffer and processed using standard procedures to determine radioactivity. IC50 values were obtained from concentration-response curves in which a number of concentrations of test compound were examined. Ki values were determined using the Cheng-Prusoff equation.

Series [2] deals with T3, sigma receptor ([3H](+)-3-PPP site) (Cavia porcellus, UniProt Q60492).
T3 construct: frozen guinea pig brains; tissue PelFreez Biologicals, Rogers, AK; host or cells: guinea pig brain membranes
As to the kind of experiment: In Vitro Sigma Receptor Binding, [3H](+)-3-PPP. Also noted: species or system guinea pig. The conditions noted are these: 45 minutes at 25° C. How it is done: (§1) For both assays frozen guinea pig brains (PelFreez Biologicals, Rogers, AK) were thawed and homogenized in 10 volumes (w/v) of ice cold 0.32M sucrose using 10 strokes of a motor-drivenglass-fitted teflon pestle adjusted to 600 rpm. The homogenate was centrifuged (4° C.) at 900× g for 10 minutes and the resultant supernatant collected and centrifuged at 22,000×g for 20 minutes. The pellet obtained from the centrifugation was resuspended in 10 volumes of 50 mM Tris HCl (pH 7.4, 25° C.) and incubated for 30 minutes at 37° C. Following the preincubation, the homogenate was centrifuted at 22,000×g for 20 minutes and the final pellet was resuspended in buffer to a protein concentration of 0.5-1.0 mg/mL for use in the assay.
(§2) Binding reactions were initiated by the addition of tissue (800 μL) to tubes containing assay buffer, the radioligand (final concentration 1-3 nM) and the compound of interest. Haloperidol (10 μM) and (+)-3-PPP (10 μM) were used to determine the levels of […] [^3 H]DTG and [^3 H](+)PPP binding, respectively. Final assay volume was 1 mL. Reactions were allowed to proceed for 45 minutes at 25° C. and terminated by rapid filtration over Whatman GF/B filters which were washed 3 times with 5 mL of cold buffer. Radioactivity trapped on the filters was determined using routine methods. […] All assays were performed using triplicate determinations. For comparison purposes, IC50 values are reported rather than Ki values.

Series [3] concerns the target sigma receptor ([3H]DTG site). As to the kind of experiment: In Vitro Sigma Receptor Binding, [3H]DTG. Conditions: guinea pig brain; 45 minutes at 25° C. How it is done:
as §1, §2

Series [4] can be described thus: In vivo Cataleptic Activity. Also on record: species or system mice (CF-1). The conditions noted are these: for catalepsy (in words): any dose tested, oral. How it is done: (§3) The potency of selected compounds to produce catalepsy and motor impairment was evaluated according to the following methods. Groups of male CF-1 mice (Harlan Sprague-Dawley, Inc.), weighing 25-30 g, were food-deprived for 3-5 hours prior to oral administration of the compound of interest. These agents were suspended in 10% DMSO/10% Tween/80% distilled water vehicle and administered in a volume of 0.01 mL/g body weight. Fifty-five minutes after oral (po) administration, the presence or absence of catalepsy was determined by placing the forepaws on a rod (6 mm diameter) mounted 39 mm above the floor of the test chamber. Pressure was applied to immobilize the subject with its back in a concave position. Following removal of pressure, the latency to recover normal posture, as defined by the return of at least one forepaw to the floor of the chamber, or the placement of one hindlimb on the bar, was recorded. Mice were tested three times and considered cataleptic if recovery was not apparent within 30 seconds during any of the three trials. Following determination of catalepsy and at 60 minutes post administration of compound, motor impairment was determined by placing mice on a rotating knurled bar (Rotorod, Ugo Basile model 7600; 6-7 revolutions per minute; 3.8 cm diameter). Mice were tested up to three times; mice failing to remain on the bar for 60 sec during all three tests were considered impaired.

Series [5] can be described thus: Motor impairment (rotorod). Format: in vivo, mice (CF-1). The conditions noted are these: for dose at which impairment of rotorod performance was noted: oral. The method, then: as §3
(In general: The rotarod test checks motor coordination on a turning rod.)

The next series has as its system sigma receptors. Conditions: Snyder and Largent 1988; cited from earlier work.
A further series deals with dopamine D-2 receptors. Conditions: Snyder and Largent 1988; cited from earlier work.
Series [6] concerns dopamine receptors. As to the kind of experiment: In Vivo Dopamine Antagonist Activity (inhibition of apomorphine-induced climbing). Also on record: species or system mice (CF-1).
The test system of series [7] is dopamine receptors. Conditions: Welch et al. 1980; cited from earlier work.
Setting [8] is: guinea pig brain, read-out: Sigma [3H](+)-3-PPP binding IC50.

T1 sequence (P14842 whole entry): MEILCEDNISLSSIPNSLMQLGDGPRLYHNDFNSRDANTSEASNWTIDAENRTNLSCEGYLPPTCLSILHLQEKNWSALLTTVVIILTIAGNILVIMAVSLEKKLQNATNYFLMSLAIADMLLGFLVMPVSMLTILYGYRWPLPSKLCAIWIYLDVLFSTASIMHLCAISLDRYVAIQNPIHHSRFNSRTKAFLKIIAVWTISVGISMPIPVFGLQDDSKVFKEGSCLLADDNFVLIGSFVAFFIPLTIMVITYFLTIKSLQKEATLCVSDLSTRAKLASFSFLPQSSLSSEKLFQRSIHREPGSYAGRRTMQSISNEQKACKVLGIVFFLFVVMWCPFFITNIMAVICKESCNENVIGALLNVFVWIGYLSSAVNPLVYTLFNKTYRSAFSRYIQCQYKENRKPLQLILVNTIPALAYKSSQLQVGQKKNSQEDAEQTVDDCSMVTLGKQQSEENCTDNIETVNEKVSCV
T2 sequence (P61169 whole entry): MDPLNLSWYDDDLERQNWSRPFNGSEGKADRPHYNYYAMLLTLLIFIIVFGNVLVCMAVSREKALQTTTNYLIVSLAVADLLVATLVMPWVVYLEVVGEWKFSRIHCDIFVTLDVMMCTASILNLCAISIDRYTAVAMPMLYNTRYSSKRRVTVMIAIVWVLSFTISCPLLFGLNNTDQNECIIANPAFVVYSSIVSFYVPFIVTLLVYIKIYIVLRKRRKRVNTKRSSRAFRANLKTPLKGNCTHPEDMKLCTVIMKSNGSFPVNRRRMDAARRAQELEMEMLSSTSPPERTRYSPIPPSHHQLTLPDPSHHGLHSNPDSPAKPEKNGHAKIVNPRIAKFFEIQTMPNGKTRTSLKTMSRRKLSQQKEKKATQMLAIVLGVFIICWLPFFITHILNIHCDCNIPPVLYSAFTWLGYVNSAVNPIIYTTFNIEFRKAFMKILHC
T3 sequence (Q60492 whole entry): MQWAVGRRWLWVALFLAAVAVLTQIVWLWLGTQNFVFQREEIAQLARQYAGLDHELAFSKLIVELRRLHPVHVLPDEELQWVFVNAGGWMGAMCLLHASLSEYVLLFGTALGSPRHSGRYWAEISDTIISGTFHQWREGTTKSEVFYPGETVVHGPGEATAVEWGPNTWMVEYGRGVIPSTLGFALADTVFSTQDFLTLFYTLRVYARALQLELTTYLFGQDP

Take `Fc1ccc(C(=CCCN2C3CCCC2c2c([nH]c4ccccc24)C3)c2ccc(F)cc2)cc1` (stereo not drawn) [11 H H (CH2)2 CHC (4-FPh)2 3]: the figures for the Ki (in series [1]; at dopamine (D-2) receptors) were above 1000 nM and 2310 nM, respectively. In addition, the concentration for half-maximal inhibition (IC50) is above 10000 nM in series [2] (setting [8]) and 1880 nM in [3].
On to `O=C(CCCN1C2CCC1c1c([nH]c3ccc(F)cc13)C2)c1ccc(F)cc1` (stereo not drawn) [Example 4 F H (CH2)3 CO 4-FPh 2, 2-fluoro-11-[4-(4-fluorophenyl)-4-oxobutyl]-5,6,7,8,9,10-hexahydro-7,10-iminocyclohept[b]indole], for which the “Cataleptic Number” value turned out to be 0 in series [4] (300 mg/kg po, n=4) and 0 in series [4] (500 mg/kg po, n=3). The “catalepsy (in words)” value in series [4] is “catalepsy was not observed”. For the same compound, the “Failing Rotorod Number” value in series [5] (300 mg/kg po, n=4) came out at 2; in [5] (500 mg/kg po, n=3), 1. Besides, in series [5], the “dose at which impairment of rotorod performance was noted” value lay within 300 to 500 mg/kg.
Consider `Fc1ccc(CCCCN2C3CCCC2c2c([nH]c4ccc(F)cc24)C3)cc1` (stereo not drawn) [11 F H (CH2)4 4-FPh 3], for which the Ki in [1] was determined as 205 nM; at dopamine (D-2) receptors, 1470 nM. Also, the IC50 in series [2] (setting [8]) was found to be 150 nM; in [3] it was 61 nM.
Consider `c1ccc(CCCCN2C3CCC2c2c(n(Cc4ccccc4)c4ccccc24)C3)cc1` (stereo not drawn) [5 H Bn (CH2)4 Ph 2], for which the Ki in series [1] worked out at 506 nM; on dopamine (D-2) receptors, 1830 nM. Also, the half-maximal inhibitory concentration (IC50) amounted to 396 ± 92 nM in series [2] (setting [8]) and 267 ± 87 nM in series [3].
Consider `O=C(CCCN1C2CCCC1c1c([nH]c3ccccc13)C2)c1ccc(F)cc1` (stereo not drawn) [11 H H (CH2)3 CO 4-FPh 3], for which the inhibitory constant (Ki) is 0.46 nM in series [1] and 38 nM at dopamine (D-2) receptors. Moreover, the half-inhibitory concentration (IC50) was found to be 89 nM in series [2] (Sigma [3H](+)-3-PPP binding IC50, guinea pig brain) and 43 nM in [3].
`CN(C)CCCN1c2ccccc2Sc2ccc(Cl)cc21` [chlorpromazine]: in the series on sigma receptors, the “binding to sigma receptors (in words)” value was “bind to both dopamine D-2 and sigma receptors”. In addition, the “binding to dopamine D-2 receptors (in words)” value with dopamine D-2 receptors is “bind to both dopamine D-2 and sigma receptors”.
On to `Fc1ccc(CCCCN2C3CCCC2c2c([nH]c4ccccc24)C3)cc1` (stereo not drawn) [11 H H (CH2)4 4-FPh 3], for which the Ki in series [1] turned out to be 23.6 nM; on dopamine (D-2) receptors, 915 nM. Besides, the IC50 came to 279 nM in series [2] (setting [8]) and 64 nM in series [3].
For `OCCCN1C2CCC1c1c([nH]c3ccc(F)cc13)C2` (stereo not drawn) [4 F H (CH2)3 OH 2], the inhibition at 1 µM in series [1] (read-out: Serotonin 5-HT2 [3H]ketanserin, value @ 1 μM) was found to be 5.6%. Further, at dopamine (D-2) receptors, the Ki was found to be 37300 nM. For the same compound, the concentration for half-maximal inhibition (IC50) in series [2] (setting [8]) was determined as 1380 ± 188 nM; in series [3] it was 317 ± 49 nM.
Turning to `O=C(CCCCN1C2CCC1c1c([nH]c3ccccc13)C2)c1ccc(F)cc1` (stereo not drawn) [Example 1 H H (CH2)4 CO 4-FPh 2, 11-[5-(4-fluorophenyl)-5-oxopentyl]-5,6,7,8,9,10-hexahydro-7,10-iminocyclohept[b]indole], the “Cataleptic Number” value in [4] (300 mg/kg po, n=4) came out at 0; in series [4] (500 mg/kg po, n=4), 0. Further, the “catalepsy (in words)” value in series [4] was “catalepsy was not observed”. The “Failing Rotorod Number” value in series [5] (300 mg/kg po, n=4) is recorded as 1; in [5] (500 mg/kg po, n=4), 4. In [5], the “dose at which impairment of rotorod performance was noted” value was 300 to 500 mg/kg. Moreover, in the series on dopamine receptors [6] (oral administration, apomorphine 3 mg/kg sc), the “potency (ED50) to inhibit apomorphine-induced climbing” value stood at 15.7 mg/kg.
`O=C(CCCN1C2CCC1c1c(n(-c3ccccc3)c3ccccc13)C2)c1ccc(F)cc1` (stereo not drawn) [2 H Ph (CH2)3 CO 4-FPh 2]: the inhibition constant Ki in series [1] came to 814 nM; at dopamine (D-2) receptors it was 840 nM. Besides, the IC50 was 510 nM in series [2] (setting [8]) and 528 nM in series [3].
With `O=C(CCCN1CCC(O)(c2ccc(Cl)cc2)CC1)c1ccc(F)cc1` [haloperidol], the “binding to sigma receptors (in words)” value with sigma receptors is “bind to both dopamine D-2 and sigma receptors”. Further, in the series with dopamine D-2 receptors, the “binding to dopamine D-2 receptors (in words)” value was “bind to both dopamine D-2 and sigma receptors”. Moreover, the “potency to inhibit apomorphine-induced climbing (reference)” value with dopamine receptors [6] (intraperitoneal (ip) administration) was 0.01 mg/kg.
As for `OC(CCCN1CC[C@@H]2[C@@H](C1)c1cc(F)ccc1N2c1ccc(F)cc1)c1ccc(F)cc1` (relative stereo) [4a,9b-trans-8-fluoro-5-(4-fluorophenyl)-2-[4-(4-fluorophenyl)-4-hydroxy-butyl]-2,3,4,4a,9b-hexahydro-1H-pyrido[4,3-b]indole hydrochloride], the “neuroleptic activity (in words)” value in the series on dopamine receptors [7] was “potent neuroleptic which acts by blocking dopamine receptors”.
On to `Fc1ccc2[nH]c3c(c2c1)C1CCCC(C3)N1` (stereo not drawn) [12 F H -- H 3], for which the Ki was determined as 3000 nM in series [1] and 58300 nM at dopamine (D-2) receptors. Further, the IC50 in series [2] (setting [8]) was 305 nM; in [3], 509 nM.
The corresponding values for `c1ccc(OCCN2C3CCC2c2c([nH]c4ccccc24)C3)cc1` (stereo not drawn) [1 H H (CH2)2 OPh 2] are 20 nM, 2600 nM, 534 ± 57 nM and 110 ± 14 nM.
For `CC(C)n1c2c(c3ccccc31)C1CCC(C2)N1CCCCc1ccccc1` (stereo not drawn) [5 H 2-Pr (CH2)4 Ph 2], in [1] (read-out: Serotonin 5-HT2 [3H]ketanserin, % @ 1 μM), the inhibition at 1 µM was determined as 46%. Further, on dopamine (D-2) receptors, the Ki was found to be 2640 ± 270 nM. In addition, the 50% inhibitory concentration (IC50) in [2] (setting [8]) was found to be 705 ± 20 nM; in [3], 231 nM.
Regarding `Fc1ccc(C(=CCCN2C3CCCC2c2c([nH]c4ccc(F)cc24)C3)c2ccc(F)cc2)cc1` (stereo not drawn) [12 F H (CH2)2 CHC (4-FPh)2 3], the Ki in series [1] was determined as 625 nM; on dopamine (D-2) receptors, 3730 nM. The 50% inhibitory concentration (IC50) was determined as 10000 nM in series [2] (setting [8]) and 1910 nM in [3].

A word on the Ki: it is a dissociation constant, usually derived from enzyme kinetics or from competition with a known ligand. Usually IC50 stands for the concentration that inhibits the measured activity by half.
